Source: patent publication US7919464B2, “Use of a peptide that interacts with αvβ3 integrin of endothelial cell” (Kyungpook National University Industry-Academic Cooperation …, priority 2003, dated 2011)
Ends that are not written are not given here.

Tests used:
[1] = system: HUVECs; test: HUVECs adhesion to plates coated with βig-h3, its fas-1 domains or mutants; type: cell-based, human; details: 10 μg/ml protein coated on plate; attached cells by absorbance at 405 nm; control BSA
Protocol: Cell adhesion assay was performed according to the method described by Kim, J.-E. et al., J. Biol. Chem., 277:4615946165, 2002. For this purpose, 10 μg/ml of each of the recombinant proteins (βig-h3 His-β-b, βig-h3 D-I, βig-h3 D-II, βig-h3 D-III and βig-h3 D-IV) prepared in Example 1 was placed into a flat-bottomed 96-well ELISA (enzyme-linked immunosorbent assay) plate (Costar, Corning Inc., NY) and then incubated overnight at 4° C., to coat the surface of the plate. As a control, 2% BSA was coated on the plate. Then, the plate was treated with PBS (phosphate-buffered saline) containing 2% BSA, and blocked at room temperature for one hour.
Meanwhile, HUVECs (human umbilical vein endothelial cells; Clonetics, San Diego, Calif.) were incubated in EGM medium (Clonetics, San Diego, Calif.) containing 2% FBS (Fetal Bovine Serum) under a condition of 37° C. and 5% CO2. The incubated cells were suspended in medium at a density of 3×10^5 cells/ml, and 0.1 ml of the cell suspension was added to each well of the plate. Next, the cells were incubated at 37° C. for 30 minutes and washed one time with PBS buffer to remove cells which had not been attached to the plate. Attached cells were added with 50 mM citrate buffer (pH 5.0) containing 3.75 mM p-nitrophenyl-N-acetyl β-D-glycosaminide and 0.25% Triton X-100, and incubated at 37° C. for one hour. Thereafter, 50 mM glycine buffer (pH 10.4) containing 5 mM EDTA was added to block the activity of the enzyme. The absorbance was measured at a 405-nm in a Bio-Rad model 550 microplate reader. Here, the higher the number of cells adhered to the plate, the higher the absorbance.
Each of the deletion mutants was generated by PCR using a cDNA template encoding the fourth fas-1 domain (SEQ ID NO: 5) (Kim, J.-E. et al., J. Biol. Chem., 275:30907-30915, 2000). Each of the PCR-amplified DNA fragments was cloned into the EcoRV/Xhol sites of the pET-29b(+) vector (Novagen; Madison, Wis.). The mutations were confirmed by sequence analysis, and the deletion mutants were expressed and purified according to a prior method (Kim, J.-E., et al., J. Cell. Biochem., 77:169-178, 2000). Thereafter, the cell adhesion activity of each of the deletion mutants was tested in the same manner as in Example 2.
Previously, the present inventors reported that an YH motif, which contains tyrosine-histidine residues highly conserved in the fragment corresponding to amino acids 548-614 of SEQ ID NO: 1, and several leucine and isoleucine residues adjacent to the tyrosine-histidine residues, binds to the αvβ5 integrin (Kim, J.-E., et al., J. Biol. Chem., 277:46159-46165, 2002). Thus, the present inventors suspected that the YH motif may also interact with the αvβ3 integrin to mediate endothelial cell adhesion. For this reason, in the present invention, the tyrosine-histidine residues conserved in the fas-1 domains, and/or the leucine and isolucine residues adjacent to the tyrosine-histidine residues, were substituted in various combinations by alanine or serine (Kim, J.-E., et al., J. Biol. Chem. 277:4615946165, 2002)(see FIG. 4b). The amino acid sequences of the prepared YH motif mutants are shown in SEQ ID NO: 17 to SEQ ID NO: 22. The mutations were confirmed by sequence analysis. Then, the substitution mutants were expressed and purified according to a known method (Kim, J.-E., et al., J. Cell. Biochem., 77:169-178, 2000). The substitution mutants were tested for their cell adhesion activity according to the same manner as in Example 2.

[2] = system: HUVECs; test: HUVECs migration assay in transwell plate coated with βig-h3; type: cell-based, human; details: 500 μM or 1 mM peptide of SEQ ID NO: 26
Protocol: Firstly, to examine whether βig-h3 is involved in the migration of endothelial cells, the present inventors performed cell migration assay. The cell migration assay was performed in a transwell plate (8 μm pore size, Costar, Cambridge, Mass.). The undersurface of the membrane was coated with the recombinant βig-h3 His-β-b protein (10 μg/ml) prepared in Example 1 at 4° C., and then, blocked for 1 hour at room temperature with PBS buffer containing 2% BSA. Meanwhile, HUVECs were added with an anti-αvβ3 antibody (LM609) or an anti-αvβ5 antibody (P1F6) and preincubated at 37° C. for 30 minutes. A control was added with mouse IgG. Then, the HUVECs preincubated with the antibody were suspended in medium at a density of 3×10^5 cells/ml, and 0.1 ml of the cell suspension was added to the upper compartment of the filter. The cells were allowed to migrate at 37° C. for 6-8 hours.
Migration was terminated by removing the cells from the upper compartment of the filter with a cotton swab. The filters were fixed with 8% glutaraldehyde and stained with crystal violet. The extent of cell migration was determined by light microscope, and within each well, cell counting was done in nine randomly selected fields HPF (Microscopic high power fields, ×200).
Then, the present inventors examined whether the migration of endothelial cells is inhibited by the YH18 synthetic peptide. […]

[3] = system: C57/BL6 mice; test: In vivo Matrigel plug assay; details: subcutaneous, 7 days
Protocol: In the present invention, the angiogenesis-inhibitory effect of the YH18 synthetic peptide, which had been proven in vitro assay according to Example 8-1, was assayed in vivo. An in vivo Matrigel plug assay was performed according to the method described by Maeshima, Y. et al., J. Biol. Chem., 275:23745-23750, 2000. 5-6 week old male C57/BL6 mice purchased from Hyochang scientific company, Korea, were used.
First, Matrigel (BD Biosciences, MA) was mixed with 20 units/ml heparin, 150 ng/ml bFGF (basic fibroblast growth factor, R&D system, International, Inc), and a YH18 synthetic peptide represented by SEQ ID NO: 26. As a control to the YH18 synthetic peptide, an YH18-con. peptide was used, and a control to peptide treatment was treated with 5% DMSO (solvent). The Matrigel mixture was injected subcutaneously to the C57/BL6 mice. After 7 days, the mice were sacrificed, and the Matrigel plugs were removed and fixed in 4% paraformaldehyde. The Matrigel plugs were buried in paraffin, sectioned and stained with H&E. Their sections were examined by light microscope, the number of blood vessels from 4-6 HPF (high power fields; ×200) was counted and averaged. Each group consisted of 3 or 4 Matrigel plugs.

[4] = system: HUVECs
Protocol: First, 100 μl of Matrigel (Chemicon, International Inc, Temecula, Calif.) was added to each well of a 96-well plate and allowed to polymerize. HUVECs were suspended in medium at a density of 3×10^5 cells/ml, and 0.1 ml of the cell suspension was added to each well of the well plate coated with Matrigel. At this time, 500 μM or 1 mM of the YH18 synthetic peptide represented by SEQ ID NO: 26 was added together. A control to peptide treatment was treated with 5% DMSO (solvent), and a control to the YH18 synthetic peptide was treated with the YH18-con. peptide represented by SEQ ID NO: 27. Thereafter, the cells were incubated at 37° C. for 16-18 hours. The cells were photographed, and endothelial tubes were counted and averaged.

Molecule | endothelial cell (HUVECs) adhesion activity [1] | other results
D-IV-LYHR: D-IV mutant, all isoleucine and leucine residues on both sides of tyrosine-histidine substituted with serine (GDAKESANSSKYHSGDESSVSGGIGALVR; D-IV-LYHR) | reduced to half that of the fas-1 domain | 
D-IV-R: D-IV mutant, leucine and isoleucine residues adjacent to one side of tyrosine-histidine substituted with serine (GDAKELANILKYHSGDESSVSGGIGALVR; D-IV-R) | equal to those of the fas-1 domain (D-IV) and its fragment (H1H2(6)) | 
KELANILKYHIGDEILVS [YH18 synthetic peptide] |  | inhibition of HUVECs migration toward βig-h3 by YH18 synthetic peptide [2]: inhibited the migration of endothelial cells toward βig-h3; number of blood vessels in Matrigel plug ([3]; 500 μM peptide in Matrigel with bFGF and heparin): significant reduction in the number of blood vessels; inhibition of angiogenesis in Matrigel plug ([3]; 1 mM peptide in Matrigel with bFGF and heparin): complete inhibition of angiogenesis; IC50 [4]: 500 µM; inhibition of HUVECs tube formation ([4]; 500 μM or 1 mM peptide, dose-dependent): selectively inhibited
D-IV-AA: D-IV mutant, tyrosine-histidine residues substituted with alanine-alanine (GDAKELANILKAAIGDEILVSGGIGALVR) | equal to those of the fas-1 domain (D-IV) and its fragment (H1H2(6)) | 
D-IV-L: D-IV mutant, leucine and isoleucine residues adjacent to one side of tyrosine-histidine substituted with serine (GDAKESANSSKYHIGDEILVSGGIGALVR; D-IV-L) | equal to those of the fas-1 domain (D-IV) and its fragment (H1H2(6)) | 
D-IV-AAR: D-IV mutant, tyrosine-histidine to alanine-alanine and isoleucine/leucine on one side to serine (GDAKELANILKAASGDESSVSGGIGALVR; D-IV-AAR) | somewhat lower than those of D-IV-LAA and D-IV-AAR | 
D-IV-LAA: D-IV mutant, tyrosine-histidine to alanine-alanine and isoleucine/leucine on one side to serine (GDAKESANSSKAAIGDEILVSGGIGALVR; D-IV-LAA) | somewhat lower than those of D-IV-LAA and D-IV-AAR | 
ΔH1H2(6): smallest deletion mutant fragment, amino acids 548-614 of SEQ ID NO: 1, SEQ ID NO: 10 (protein, listed as Homo sapiens) RALPPRERSRLLGDAKELANILKYHIGDEILVSGGIGALVRLKSLQGDKLEVSLKNNVVSVNKEPVA | still retains endothelial cell adhesion activity | 
